Assay results published in US20240360194A1, “New Peptides as Potent and Selective GIP Receptor Agonists” (Sanofi, priority 2021, published 2024).
≈ marks a conversion by molar mass, not a printed value. Numbered stars: 1 amine (or outer) side, 2 acyl side, 3 side chain; on linkers, the order of the positions; unused ones are H or OH. Square brackets hold non-standard residues; d marks the D form. Side chains are listed from the residue outwards. Peptide text beside a SMILES is read from it. * marks the point of attachment. C18 diacid = O=C(O)CCCCCCCCCCCCCCCCC(=O)*; γGlu = O=C(O)[C@H](CCC(=O)[*:2])N[*:1]; αMeF = C[C@](N)(Cc1ccccc1)C(=O)O; hLeu = CC(C)CC[C@H](N)C(=O)O; AEEA = NCCOCCOCC(=O)O; Aib = CC(C)(N)C(=O)O

Experiments:
[1] = target: human GLP-1 receptor (hGLP-1R) (Homo sapiens, UniProt P43220); test: In vitro cellular cAMP assay for GLP-1 receptor efficacy (HEK-293 cell line over-expressing receptor); format: cell-based; details: HEK-293, 0.1% BSA
human GIP receptor = target: T1, human GIP receptor (Homo sapiens, UniProt P48546); test: In vitro cellular cAMP assay for GIP receptor efficacy (human adipocytes); format: cell-based; details: for EC50: read-out: hGIPR EC50; for Emax: read-out: hGIPR Emax
T1 construct: human adipocytes endogenously expressing the human GIP receptor; host or cells: human preadipocytes (Lonza) differentiated to adipocytes
T1 sequence (P48546 22-466): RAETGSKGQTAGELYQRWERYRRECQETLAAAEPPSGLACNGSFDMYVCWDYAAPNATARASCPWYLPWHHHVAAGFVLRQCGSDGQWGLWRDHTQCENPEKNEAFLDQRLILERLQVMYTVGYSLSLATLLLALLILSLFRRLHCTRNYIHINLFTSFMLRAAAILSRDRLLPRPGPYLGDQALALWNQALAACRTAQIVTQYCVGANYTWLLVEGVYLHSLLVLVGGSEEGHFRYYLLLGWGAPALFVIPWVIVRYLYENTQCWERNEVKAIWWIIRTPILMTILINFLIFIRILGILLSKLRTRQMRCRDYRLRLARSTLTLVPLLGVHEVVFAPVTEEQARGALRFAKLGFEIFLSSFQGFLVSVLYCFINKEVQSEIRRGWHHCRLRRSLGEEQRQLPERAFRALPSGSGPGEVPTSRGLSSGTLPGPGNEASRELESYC
Procedure: For this, one vial of human preadipocytes (˜10^6 cells; Lonza) was thawed in a T-75 cell culture dish. The cells were cultivated at 37° C., 5% CO2, 95% humidity in Preadipocyte Growth Medium with Supplement Mix from Promo Cell.
After 3 days, the cells were washed with PBS and 1.5 ml Trypsin, incubated for 4 min, then resuspended in medium, centrifugated for 10 min @ 300 rcf RT, resuspended again and distributed to four T-75 cell culture dishes. Again, the cells were cultivated at 37° C., 5% CO2, 95% humidity.
After 5 days, the cells were washed with PBS and 1.5 ml Trypsin, incubated for 4 min, then resuspended in medium, centrifugated for 10 min @ 300 rcf RT, resuspended again and sawn in T-75 dishes (2.5×10^6 cells per dish) in 15 ml Differentiation medium each.
The differentiation medium had the following composition: DMEM (Gibco), Ham's F10 (Gibco), 15 mM HEPES (Gibco), 3% FCS (PAA), 33 μM biotin (Sigma-Aldrich), 17 μM Pantothenate (Sigma-Aldrich), 0.1 μM human insulin (Sigma-Aldrich), 1 μM dexamethason (Sigma-Aldrich), 0.1 μM PPARgamma agonist (#R2408, Sigma-Aldrich), 0.6×Anti-Anti (#15240, ThermoFisher), 200 μM IBMX (AppliChem), and 0.01 μM L-thyroxine (Sigma-Aldrich).
After 6 days of differentiation, 5000 cells per well were dispensed on a 96-well plate (#CLS3694 from Corning®, Sigma-Aldrich). For measurement of cAMP generation, 25 μL of test compound was added to each well of the 96-well plate, followed by incubation for 30 min at room temperature.
The cAMP generated following test compound stimulation was determined using a kit from Cisbio Corp. based on HTRF (Homogenous Time Resolved Fluorescence). The cAMP assay was performed according to manufacturer's instructions (Cisbio).
The cAMP content of cells was determined using a kit from Cisbio Corp. based on HTRF (Homogenous Time Resolved Fluorescence).
After addition of HTRF reagents diluted in lysis buffer (kit components), the plates were incubated for 1 h, followed by measurement of the fluorescence ratio at 665/620 nm.

[2] = target: T2, human GIP receptor (hGIPR) (Homo sapiens, UniProt P48546); test: Binding assay, displacement of [125I]GIP from HEK-293 membranes over-expressing GIPR (SPA); details: [125I]GIP displacement
T2 sequence (P48546 22-466): T1 sequence (P48546 22-466)
Procedure: (1) Preparation of Membranes from HEK-293 Cells Over-Expressing GIPR or GLP-1R
HEK-293 cells recombinantly over-expressing GIPR or GLP-1R were grown to 50% confluency, washed with warm 1×PBS (Gibco) and detached in HEPES/EDTA-buffer (100 mM HEPES pH 7.5, 5 mM EDTA). Cells were harvested by centrifugation at 4° C. and 3000×g and the pellets were stored at −80° C. until further processing.
After thawing on ice, pellets were resuspended in HEPES/EDTA-buffer and homogenized on ice for 1 min using Ultra-Turray T25. After subsequent sonification the cell debris was removed by centrifugation at 1000×g and 4° C. Supernatants were then ultra-centrifuged at 100000×g and 4° C. under vacuum for 30 min. Pellets were resuspended in HEPES/EDTA/NaCl-buffer (20 mM HEPES, 1 mM EDTA, 150 mM NaCl; add 1 Complete Mini Protease inhibitor cocktail to 10 ml buffer) and protein content was determined via BCA-Protein assay.
(2) Measurement of Binding Activity of Test Compounds to Human GIPR or GLP-1R

[3] = Solubility assessment (UHPLC-UV of supernatant, target 10 mg/ml); format: physicochemical; details: for solubility at 24 h: pH 7.4, Soluble amount
Procedure: Prior to the solubility measurement of a peptide batch, its purity was determined through UHPLC/MS.
Therefore, solutions from solid samples were prepared in a buffer system with a concentration of 10 mg/ml compound based on the previously determined % purity: • Solubility buffer system A) 100 mM phosphate buffer pH 7.4 • Solubility buffer system B) 8 mM phosphate buffer pH 7.4, 14 mg/ml propylene glycol, 5.5 mg/ml phenol • Solubility buffer system C) 100 mM phosphate buffer pH 7.4, 2.7 mg/ml m-cresol
UHPLC-UV was performed after 1 h of gentle agitation and storage at 5° C. overnight (24 h) from the supernatant, which was obtained after 15 min of centrifugation at 2500 RCF (relative centrifugal acceleration).
The different UV extinction coefficients of sample and reference peptide were calculated based on the different amino acid sequences and considered in the concentration calculation.
The analytical method used was Analytical UHPLC Method A.
Peptide samples were prepared in solubility buffer system A or C and solubility was assessed as described in Methods.

Sequence of human GLP-1 receptor (hGLP-1R) (P43220 24-463): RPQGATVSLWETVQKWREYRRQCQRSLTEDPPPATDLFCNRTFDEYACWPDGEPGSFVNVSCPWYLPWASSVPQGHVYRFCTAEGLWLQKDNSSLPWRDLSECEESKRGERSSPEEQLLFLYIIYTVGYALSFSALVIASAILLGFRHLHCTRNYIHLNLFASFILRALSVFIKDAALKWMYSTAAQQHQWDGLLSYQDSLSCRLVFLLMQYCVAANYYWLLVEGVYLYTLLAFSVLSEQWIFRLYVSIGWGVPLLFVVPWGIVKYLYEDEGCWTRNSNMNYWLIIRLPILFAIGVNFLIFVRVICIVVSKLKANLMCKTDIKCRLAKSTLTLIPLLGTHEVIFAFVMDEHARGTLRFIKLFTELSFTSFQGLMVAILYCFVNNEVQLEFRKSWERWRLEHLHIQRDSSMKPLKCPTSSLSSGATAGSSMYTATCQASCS

Structure (SMILES) | EC50 [1] [pM] | EC50 (human GIP receptor) [pM] | Emax (human GIP receptor) [%] | IC50 [2] [pM] | solubility at 24 h [3] [µg/mL] | Soluble amount ([3]; 24 h, pH 7.4) [mg/mL]
CC[C@H](C)[C@H](NC(=O)[C@H](CCCNC(=N)N)NC(=O)[C@H](CC(=O)O)NC(=O)[C@H](CCCCNC(=O)COCCOCCNC(=O)COCCOCCNC(=O)CC[C@H](NC(=O)CCCCCCCCCCCCCCCCC(=O)O)C(=O)O)NC(=O)C(C)(C)NC(=O)[C@@H](NC(=O)[C@H](CO)NC(=O)[C@H](CC(C)C)NC(=O)[C@H](CC(=O)O)NC(=O)[C@H](CO)NC(=O)[C@@H](NC(=O)[C@H](Cc1ccccc1)NC(=O)[C@@H](NC(=O)CNC(=O)[C@H](CCC(=O)O)NC(=O)C(C)(C)NC(=O)[C@@H](N)Cc1ccc(O)cc1)[C@@H](C)O)[C@@H](C)CC)[C@@H](C)CC)C(=O)N[C@@H](Cc1c[nH]cn1)C(=O)N[C@@H](CCC(N)=O)C(=O)NC(C)(C)C(=O)N[C@@H](CCC(=O)O)C(=O)N[C@@H](Cc1ccccc1)C(=O)N[C@H](C(=O)N[C@@H](CCC(=O)O)C(=O)N[C@@H](Cc1c[nH]c2ccccc12)C(=O)N[C@@H](CC(C)C)C(=O)N[C@@H](CC(C)C)C(=O)N[C@@H](C)C(=O)N[C@@H](CCC(N)=O)C(=O)N[C@@H](CCCNC(=N)N)C(=O)N1CCC[C@H]1C(=O)N[C@@H](CO)C(=O)N[C@@H](CO)C(=O)NCC(=O)N[C@@H](C)C(=O)N1CCC[C@H]1C(=O)N1CCC[C@H]1C(=O)N1CCC[C@H]1C(=O)N[C@@H](CO)C(N)=O)[C@@H](C)CC [SEQ ID NO: 30, H2N-Y-Aib-E-G-T-F-I-S-D-L-S-I-Aib-K[{AEEA}2-gGlu-C18OH]-D-R-I-H-Q-Aib-E-F-I-E-W-L-L-A-Q-R-P-S-S-G-A-P-P-P-S-NH2] (H-Y[Aib]EGTFISDLSI[Aib]K([AEEA-AEEA-γGlu-C18 diacid])DRIHQ[Aib]EFIEWLLAQRPSSGAPPPS-NH2) | > 10000 | 500 | 138 | 100 | 8400 (≈ 1660 µM) | –
CC[C@H](C)[C@H](NC(=O)[C@H](CCCNC(=N)N)NC(=O)[C@H](CC(=O)O)NC(=O)[C@H](CCCCNC(=O)COCCOCCNC(=O)COCCOCCNC(=O)CC[C@H](NC(=O)CCCCCCCCCCCCCCCCC(=O)O)C(=O)O)NC(=O)C(C)(C)NC(=O)[C@@H](NC(=O)[C@H](CO)NC(=O)[C@H](CC(C)C)NC(=O)[C@H](CC(=O)O)NC(=O)[C@H](CO)NC(=O)[C@@H](NC(=O)[C@H](Cc1ccccc1)NC(=O)[C@@H](NC(=O)CNC(=O)[C@H](CCC(=O)O)NC(=O)C(C)(C)NC(=O)[C@@H](N)Cc1ccc(O)cc1)[C@@H](C)O)[C@@H](C)CC)[C@@H](C)CC)C(=O)N[C@@H](Cc1c[nH]cn1)C(=O)N[C@@H](CCC(N)=O)C(=O)N[C@@H](CCC(=O)O)C(=O)N[C@@H](CCC(=O)O)C(=O)N[C@@](C)(Cc1ccccc1)C(=O)N[C@H](C(=O)N[C@@H](CCC(=O)O)C(=O)N[C@@H](Cc1c[nH]c2ccccc12)C(=O)N[C@@H](CC(C)C)C(=O)N[C@@H](CC(C)C)C(=O)N[C@@H](C)C(=O)N[C@@H](CCC(N)=O)C(=O)NCC(=O)N1CCC[C@H]1C(=O)N[C@@H](CO)C(=O)N[C@@H](CO)C(=O)NCC(=O)N[C@@H](C)C(=O)N1CCC[C@H]1C(=O)N1CCC[C@H]1C(=O)N1CCC[C@H]1C(=O)N[C@@H](CO)C(N)=O)[C@@H](C)CC [SEQ ID NO: 32, H2N-Y-Aib-E-G-T-F-I-S-D-L-S-I-Aib-K[{AEEA}2-gGlu-C18OH]-D-R-I-H-Q-E-E-Mph-I-E-W-L-L-A-Q-G-P-S-S-G-A-P-P-P-S-NH2] (H-Y[Aib]EGTFISDLSI[Aib]K([AEEA-AEEA-γGlu-C18 diacid])DRIHQEE[αMeF]IEWLLAQGPSSGAPPPS-NH2) | > 10000 | 600 | 109 | 900 | 8200 (≈ 1630 µM) | –
CC[C@H](C)[C@H](NC(=O)[C@H](Cc1ccccc1)NC(=O)[C@H](CCC(=O)O)NC(=O)[C@H](CCC(=O)O)NC(=O)[C@H](CCC(N)=O)NC(=O)[C@H](Cc1c[nH]cn1)NC(=O)[C@@H](NC(=O)[C@H](CCCNC(=N)N)NC(=O)[C@H](CC(=O)O)NC(=O)[C@H](CCCCNC(=O)COCCOCCNC(=O)COCCOCCNC(=O)CC[C@H](NC(=O)CCCCCCCCCCCCCCCCC(=O)O)C(=O)O)NC(=O)C(C)(C)NC(=O)[C@@H](NC(=O)[C@H](CO)NC(=O)[C@H](CCC(C)C)NC(=O)[C@H](CC(=O)O)NC(=O)[C@H](CO)NC(=O)[C@@H](NC(=O)[C@H](Cc1ccccc1)NC(=O)[C@@H](NC(=O)CNC(=O)[C@H](CCC(=O)O)NC(=O)C(C)(C)NC(=O)[C@@H](N)Cc1ccc(O)cc1)[C@@H](C)O)[C@@H](C)CC)[C@@H](C)CC)[C@@H](C)CC)C(=O)N[C@@H](CCC(=O)O)C(=O)N[C@@H](Cc1c[nH]c2ccccc12)C(=O)N[C@@H](CC(C)C)C(=O)N[C@@H](CC(C)C)C(=O)N[C@@H](C)C(=O)N[C@@H](CCC(N)=O)C(=O)NCC(=O)N1CCC[C@H]1C(=O)N[C@@H](CO)C(=O)N[C@@H](CO)C(=O)NCC(=O)N[C@@H](C)C(=O)N1CCC[C@H]1C(=O)N1CCC[C@H]1C(=O)N1CCC[C@H]1C(=O)N[C@@H](CO)C(N)=O [SEQ ID NO: 34, H2N-Y-Aib-E-G-T-F-I-S-D-Hol-S-I-Aib-K[{AEEA}2-gGlu-C18OH]-DRIHQEEFIEWLLAQGPSSGAPPPS-NH2] (H-Y[Aib]EGTFISD[hLeu]SI[Aib]K([AEEA-AEEA-γGlu-C18 diacid])DRIHQEEFIEWLLAQGPSSGAPPPS-NH2) | > 10000 | 500 | 112 | 300 | > 9200 | >8.7
